Measured values taken from US12503452B2 (Curza Global, LLC, priority 2019, dated 2025).
Counter-ions that a name gives are not always drawn. Like-named read-outs stand apart in the source and are kept apart here.

Assays:
[1] = test system: E. coli S30 extract (bacterial protein synthesis); experiment: E. coli S30 extract coupled transcription-translation luciferase assay (inhibition of bacterial protein synthesis); type: biochemical; details: read-out: S30 IC50 (μM/% inhib.)
In short: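 Cell-free coupled transcription-translation in E. coli S30 circular-DNA extract, with pBESTluc plasmid as template and complete amino acid mix. Eight 2-fold compound dilutions were incubated with the extract 1 h at 37 °C, chilled, then luciferase luminescence was read. % inhibition was taken relative to no-inhibitor wells; no-DNA wells gave background.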

[2] = biological target: Rabbit Reticulocyte Lysate (eukaryotic protein synthesis); experiment: Rabbit reticulocyte lysate luciferase assay (inhibition of eukaryotic protein synthesis); type: biochemical; details: read-out: Rabbit reticulocyte IC50 (μM/% inhib.)
In short: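 Nuclease-treated rabbit reticulocyte lysate translating luciferase control RNA, with complete amino acids, was incubated at 30° C. for 90 minutes with 2-fold serial compound dilutions. Luminescence was measured after adding luciferase reagent. % inhibition was relative to water controls, with no-RNA wells as background.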

A. baumannii (Ab) = experiment: Broth microdilution minimum inhibitory concentration (MIC); type: cell-based; details: for MIC: Acinetobacter baumannii, read-out: Ab + bicarb MIC
In short: (§1)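 CLSI broth microdilution (M07-A9, slightly modified) in CAMHB, optionally with 6.25 or 25 mM sodium bicarbonate or 0–50% heat-inactivated human serum. Two-fold serial dilutions (8 concentrations, triplicate) were inoculated at 5×10^4 CFU/well from 0.5 McFarland cultures grown at 35±2 °C.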

S. aureus (Sa) = experiment: as above; type: cell-based; details: for MIC: Staphylococcus aureus, read-out: Sa + bicarb MIC
In short: as §1

E. faecalis (Ef) = experiment: as above; type: cell-based; details: for MIC: Enterococcus faecalis, read-out: Ef + bicarb MIC
In short: as §1

P. aeruginosa (Pa) = experiment: as above; type: cell-based; details: for MIC: Pseudomonas aeruginosa, read-out: Pa MIC + bicarb
In short: as §1

E. coli (Ec) = experiment: as above; type: cell-based; details: for MIC: Escherichia coli, read-out: E. coli + bicarb MIC
In short: as §1

[3] = class by IC50 or % inhibition @ 1 μM
[4] = A. baumannii, growth medium supplemented with sodium bicarbonate
[5] = S. aureus, growth medium supplemented with sodium bicarbonate
[6] = E. faecalis, growth medium supplemented with sodium bicarbonate
[7] = P. aeruginosa, growth medium supplemented with sodium bicarbonate
[8] = E. coli, growth medium supplemented with sodium bicarbonate
[9] = A. baumannii, growth medium with sodium bicarbonate
[10] = S. aureus, growth medium with sodium bicarbonate
[11] = E. faecalis, growth medium with sodium bicarbonate
[12] = P. aeruginosa, growth medium with sodium bicarbonate
[13] = E. coli, growth medium with sodium bicarbonate

| SMILES | IC50 [1, 3] | IC50 [2, 3] | MIC (A. baumannii (Ab); [4]) | MIC (S. aureus (Sa); [5]) | MIC (E. faecalis (Ef); [6]) | MIC (P. aeruginosa (Pa); [7]) | MIC (E. coli (Ec); [8]) | MIC (A. baumannii (Ab); [9]) | MIC (S. aureus (Sa); [10]) | MIC (E. faecalis (Ef); [11]) | MIC (P. aeruginosa (Pa); [12]) | MIC (E. coli (Ec); [13]) | further results |
| --- | --- | --- | --- | --- | --- | --- | --- | --- | --- | --- | --- | --- | --- |
| Cc1cc(NC(=O)N2CCN(C(=O)C(C)(C)N)CC2)nc(=O)n1-c1ccc(CN2CCC(N)CC2)cc1 [Compound 292, hydrochloride salt] | > 1 µM | > 1 µM | – | – | – | – | – | – | – | – | – | – | MIC (A. baumannii (Ab)): > 32 µg/mL; MIC (S. aureus (Sa)): > 32 µg/mL; MIC (E. faecalis (Ef)): > 32 µg/mL; MIC (P. aeruginosa (Pa)): > 32 µg/mL; MIC (E. coli (Ec)): > 32 µg/mL |
| CCN(C[C@H]1C[C@@H](N)C1)C(C)Cc1ccc(-n2ccc(NC(=O)N3CCN(C(=O)C(C)(C)N)CC3)nc2=O)cc1 (stereo partly shown) [Compound 161] | < 0.5 µM | > 1 µM | 8 to 32 µg/mL | < 8 µg/mL | < 8 µg/mL | > 32 µg/mL | < 8 µg/mL | – | – | – | – | – | – |
| CC(C)(N)C(=O)N1CCN(C(=O)Nc2ccn(-c3ccc(CN[C@H]4CC[C@H](N)CC4)cc3)c(=O)n2)CC1 [Compound 117] | < 0.5 µM | > 1 µM | > 32 µg/mL | < 8 µg/mL | < 8 µg/mL | > 32 µg/mL | < 8 µg/mL | – | – | – | – | – | – |
| CC(Cc1ccc(-n2ccc(NC(=O)N3CCN(C(=O)C(C)(C)N)CC3)nc2=O)cc1)N1CC[C@@H](CN)C1 (stereo partly shown) [Compound 382] | – | – | – | – | – | – | – | > 32 µg/mL | < 8 µg/mL | < 8 µg/mL | 8 to 32 µg/mL | < 8 µg/mL | IC50 ([1]; % inhibition @ 1 μM): < 0.5 µM; IC50 ([2]; % inhibition @ 1 μM): > 1 µM |
| CC(C)(N)C(=O)N1CCN(C(=O)Nc2ccn(-c3ccc(CNC4CCC[C@@H](N)C4)cc3)c(=O)n2)CC1 (mixture of isomers) [Compound 320, hydrochloride salt] | < 0.5 µM | > 1 µM | – | – | – | – | – | – | – | – | – | – | MIC (A. baumannii (Ab)): > 32 µg/mL; MIC (S. aureus (Sa)): 8 to 32 µg/mL; MIC (E. faecalis (Ef)): > 32 µg/mL; MIC (P. aeruginosa (Pa)): > 32 µg/mL; MIC (E. coli (Ec)): < 8 µg/mL |
| NC1CCCN(CCc2ccc(-n3ccc(NC(=O)N4CCN(C(=O)C5CCCN5)CC4)nc3=O)cc2)CC1 (stereo not shown) [Compound 310, hydrochloride salt] | 0.5 to 1 µM | > 1 µM | – | – | – | – | – | – | – | – | – | – | MIC (A. baumannii (Ab)): > 32 µg/mL; MIC (S. aureus (Sa)): 8 to 32 µg/mL; MIC (E. faecalis (Ef)): > 32 µg/mL; MIC (P. aeruginosa (Pa)): > 32 µg/mL; MIC (E. coli (Ec)): < 8 µg/mL |
| CC(Cc1ccc(-n2ccc(NC(=O)N3CCN(C(=O)C(C)(C)N)CC3)nc2=O)cc1)N1CC[C@H](CN)C1 (stereo partly shown) [Compound 378] | – | – | – | – | – | – | – | – | – | – | – | – | IC50 ([1]; % inhibition @ 1 μM): < 0.5 µM; IC50 ([2]; % inhibition @ 1 μM): > 1 µM; Ab + bicarb MIC (A. baumannii (Ab); [9]): + (An MIC value (μg/mL) that is 32 μg/mL or greater); Sa + bicarb MIC (S. aureus (Sa); [10]): +++ (An MIC value (μg/mL) that is less than 8 μg/mL); Ef + bicarb MIC (E. faecalis (Ef); [11]): ++ (An MIC value (μg/mL) that is 8 μg/mL or greater and less than 32 μg/mL); Pa MIC + bicarb (P. aeruginosa (Pa); [12]): + (An MIC value (μg/mL) that is 32 μg/mL or greater); E. coli + bicarb MIC (E. coli (Ec); [13]): +++ (An MIC value (μg/mL) that is less than 8 μg/mL) |
| CN(Cc1ccc(-n2ccc(NC(=O)N3CCN(C(=O)[C@@](C)(N)CO)CC3)nc2=O)cc1)C1CCC(N)CC1 (stereo partly shown) [Compound 286] | < 0.5 µM | > 1 µM | – | – | – | – | – | > 32 µg/mL | < 8 µg/mL | < 8 µg/mL | > 32 µg/mL | < 8 µg/mL | – |
| CCN(Cc1ccc(-n2ccc(NC(=O)N3CCN(C(=O)[C@H](C)N)CC3)nc2=O)cc1)C1CCC(N)CC1 (stereo partly shown) [Compound 357] | – | – | – | – | – | – | – | > 32 µg/mL | < 8 µg/mL | 8 to 32 µg/mL | > 32 µg/mL | < 8 µg/mL | IC50 ([1]; % inhibition @ 1 μM): < 0.5 µM; IC50 ([2]; % inhibition @ 1 μM): > 1 µM |
| CC(C)(N)C(=O)N1CCN(C(=O)Nc2ccn(-c3ccc(CNCC4CNC4)cc3)c(=O)n2)CC1 [Compound 112] | < 0.5 µM | > 1 µM | > 32 µg/mL | 8 to 32 µg/mL | > 32 µg/mL | > 32 µg/mL | 8 to 32 µg/mL | – | – | – | – | – | – |
| Cc1cc(-n2ccc(NC(=O)N3CCN(C(=O)C(C)(C)N)CC3)nc2=O)ccc1CN(C)C1CCC(N)CC1 (stereo not shown) [Compound 284] | < 0.5 µM | > 1 µM | – | – | – | – | – | < 8 µg/mL | < 8 µg/mL | < 8 µg/mL | 8 to 32 µg/mL | < 8 µg/mL | – |
| CO[C@H]1C[C@@H](NCc2ccc(-n3ccc(NC(=O)N4CCN(C(=O)C(C)(C)N)CC4)nc3=O)cc2)CC[C@@H]1N [Compound 339, hydrochloride salt] | < 0.5 µM | > 1 µM | – | – | – | – | – | – | – | – | – | – | MIC (A. baumannii (Ab)): > 32 µg/mL; MIC (S. aureus (Sa)): 8 to 32 µg/mL; MIC (E. faecalis (Ef)): > 32 µg/mL; MIC (P. aeruginosa (Pa)): > 32 µg/mL; MIC (E. coli (Ec)): < 8 µg/mL |
| CC1C[C@@H](NCc2ccc(-n3ccc(NC(=O)N4CCN(C(=O)C(C)(C)N)CC4)nc3=O)cc2)CC[C@@H]1N (stereo partly shown) [Compound 335, hydrochloride salt] | < 0.5 µM | > 1 µM | – | – | – | – | – | – | – | – | – | – | MIC (A. baumannii (Ab)): > 32 µg/mL; MIC (S. aureus (Sa)): < 8 µg/mL; MIC (E. faecalis (Ef)): > 32 µg/mL; MIC (P. aeruginosa (Pa)): > 32 µg/mL; MIC (E. coli (Ec)): < 8 µg/mL |
| CC(C)(N)C(=O)N1CCN(C(=O)Nc2ccn(-c3ccc(CN4CC[C@@H](N)[C@H](O)C4)cc3)c(=O)n2)CC1 [Compound 268] | > 1 µM | > 1 µM | – | – | – | – | – | > 32 µg/mL | 8 to 32 µg/mL | > 32 µg/mL | > 32 µg/mL | 8 to 32 µg/mL | – |
| CC(C)(N)C(=O)N1CCN(C(=O)Nc2ccn(-c3ccc(C[C@H](N)C(=O)NC4CNC4)cc3)c(=O)n2)CC1 [Compound 147] | > 1 µM | > 1 µM | > 32 µg/mL | > 32 µg/mL | > 32 µg/mL | > 32 µg/mL | > 32 µg/mL | – | – | – | – | – | – |
| CCN(C(C)Cc1ccc(-n2ccc(NC(=O)N3CCN(C(=O)C(C)(C)N)CC3)nc2=O)cc1)C1CCC(CN)CC1 (stereo not shown) [Compound 154] | < 0.5 µM | > 1 µM | > 32 µg/mL | < 8 µg/mL | < 8 µg/mL | > 32 µg/mL | < 8 µg/mL | – | – | – | – | – | – |
| CCN(Cc1ccc(-n2ccc(NC(=O)N3CCN(C(=O)C(C)(C)N)[C@H](C)C3)nc2=O)cc1)C1CCC(N)CC1 (stereo partly shown) [Compound 274] | < 0.5 µM | > 1 µM | – | – | – | – | – | < 8 µg/mL | < 8 µg/mL | < 8 µg/mL | 8 to 32 µg/mL | < 8 µg/mL | – |
| CCOC(=O)C1(CN)CN(Cc2ccc(-n3ccc(NC(=O)N4CCN(C(=O)C(C)(C)N)CC4)nc3=O)cc2)C1 [Compound 201] | > 1 µM | > 1 µM | – | – | – | – | – | > 32 µg/mL | > 32 µg/mL | > 32 µg/mL | > 32 µg/mL | > 32 µg/mL | – |
| CC(C)(N)C(=O)N1CCN(C(=O)Nc2ccn(-c3ccc(CN4CCC(N)CC4)cc3)c(=O)n2)CC1 [Compound 57] | < 0.5 µM | > 1 µM | > 32 µg/mL | < 8 µg/mL | 8 to 32 µg/mL | > 32 µg/mL | < 8 µg/mL | – | – | – | – | – | – |
